Common to all, as to assay: NCI anticancer screen, dose series, 48 h
Assay [1] relates to COLO 205 colon.
Assay [2] relates to DU-145 prostate.
Assay [3] has as its system HCC-2998 colon.
In assay [4] the test system is HCT-116 colon.
For assay [5], the system named is HL-60(TB) leukemia.
The subject of assay [6] is HOP-62 NSCLC.
Assay [7] deals with LOX IMVI melanoma.
Assay [8] has as its system MCF7 breast.
The test system of assay [9] is NCI-H23 lung.
Assay [10] has as its system SK-MEL-2 melanoma.

The text below walks through data of PubChem BioAssay (NCI).

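Values below derive from 48-hour exposures of cells grown in 96-well plates, with endpoints linearly interpolated between the two concentrations bracketing the appropriate inhibition level. Abbreviation: GI50, concentration required for 50% inhibition of growth. TGI is the concentration that stops growth completely.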

On to `CN(C)c1ccc2c(c1)Sc1cc(N(C)C)ccc1N2C(=O)c1ccccc1`, for which the GI50 was over 100 µM in assay [1]; over 100 µM in assay [2]; 73.2 µM in [3]; 25 µM in assay [4]; 4.5 µM in assay [5]; 92.4 µM in [6]. In addition, the GI50 is 24.2 µM in assay [7], 37 µM in assay [8] and 27.7 µM in assay [9]. Further, the TGI in assay [1], in [2], in assay [3], in assay [4], in [5] and in assay [6] was over 100 µM in each case. Further, the TGI in [7], in assay [8] and in [9] was over 100 µM throughout.
In the case of `C=CC(=O)N1CCN(c2ccc3cccc(NC(=O)c4cnc(C)cn4)c3n2)CC1`, the GI50 is 6.26 µM in [1]; 2.45 µM in [2]; 5.32 µM in assay [3]; 2.36 µM in [4]; 2.2 µM in assay [5]; 4.24 µM in [6]. For the same compound, the GI50 was 5.14 µM in assay [7], 3.44 µM in assay [8], 4.49 µM in [9] and 3.37 µM in [10]. The TGI in assay [1] was 30 µM; in assay [2] it was over 100 µM; in assay [3], 23.6 µM; in [4], 20.1 µM; in [5], 6.61 µM; in [6] it was over 100 µM. The TGI in [7] is 21.4 µM; in [8], over 100 µM; in assay [9], 19.5 µM; in assay [10] it was 27.8 µM.
As to `CC(C)CC(CC1=CCC2CC1C2(C)C)C1=C(O)C(C)(C)C(=O)C(C)(C)C1=O` (centres undefined), the GI50 is 0.465 µM in [2]; 0.376 µM in assay [4]; 0.205 µM in assay [5]; 0.303 µM in [6]; 0.336 µM in assay [7]; 0.303 µM in [8]. The GI50 in assay [9] was 0.321 µM; in assay [10] it was 0.286 µM. Further, the TGI in [2] is over 100 µM; in assay [4], 1.46 µM; in [5], 0.423 µM; in [6], 1.14 µM; in assay [7], 10.7 µM; in [8] it was over 100 µM. Moreover, the values for the TGI in assay [9] and in assay [10] were 1.57 µM and 0.722 µM, respectively.
For the compound `Cc1cc(N/N=C/c2nc(-c3ccc(Br)cc3)oc2C)c2cc(Cl)ccc2n1`, the GI50 in [1], in assay [2], in assay [3], in assay [4], in assay [5] and in [6] was over 100 µM each time. Also, the GI50 in assay [7], in assay [8], in assay [9] and in assay [10] was over 100 µM throughout. Also, the TGI in assay [1], in assay [2], in [3], in [4], in assay [5] and in assay [6] was over 100 µM in each case. Moreover, the TGI in assay [7], in assay [8], in assay [9] and in [10] was over 100 µM in each case.
With `CCN(C(=O)N1CCN(c2cc3c(cc2F)c(=O)c(C(=O)O)cn3C2CC2)CC1)c1nc(-c2ccc(C)cc2)cs1`, the GI50 in assay [2] is 0.442 µM; in [3], 0.694 µM; in assay [4] it was 1.04 µM; in [6] it was 1.41 µM; in assay [8], 1.31 µM; in [9] it was 0.399 µM. The GI50 in [10] was 2.5 µM. Further, the TGI in assay [2] was 82.8 µM; in assay [3] it was over 100 µM; in [4], over 40.1 µM; in assay [6], over 100 µM; in assay [8], over 100 µM; in [9], 24.6 µM. In [10], the TGI turned out to be 7.38 µM.
For `C=CCOC1OC(CO[Si](C)(C)C(C)(C)C)C(OCc2ccccc2)C(OCc2ccccc2)C1OCc1ccccc1` (centres undefined), the TGI in [1] was over 100 µM; in assay [2], over 100 µM; in [4], 65.9 µM; in assay [5] it was over 100 µM; in assay [6], 48.3 µM; in [7] it was over 100 µM. Besides, the TGI in assay [8], in assay [9] and in assay [10] was over 100 µM each time.
Regarding `COc1cc2c(cc1OCCCCOc1cc3c(cc1OC)C(=O)N1CCC[C@H]1CN3)N=C[C@@H]1CCCN1C2=O`, the GI50 in assay [1] was 1.3 µM; in assay [2], 2.46 µM; in [3] it was 2 µM; in [4], 2.37 µM; in assay [6], 3.36 µM; in [7], 1.07 µM. For the same compound, the figures for the GI50 in assay [8], in assay [9] and in assay [10] were 0.346 µM, 2.22 µM and 0.826 µM, respectively. The TGI is 5.33 µM in assay [1]; over 100 µM in [2]; 5.64 µM in [3]; over 100 µM in assay [4]; over 100 µM in assay [6]; over 32.5 µM in assay [7]. Also, the TGI in assay [8] was 1.76 µM; in assay [9], 5.8 µM; in assay [10] it was over 100 µM.
Regarding `O=C(/C(=C/c1ccc([N+](=O)[O-])cc1)c1ccccc1)c1ccccc1`, the GI50 was 3.81 µM in assay [1]; 3.17 µM in assay [2]; 2.38 µM in assay [3]; 2.29 µM in assay [5]; 2.78 µM in assay [6]; 3.2 µM in [8]. Besides, the TGI in assay [1] is 18.2 µM; in [2] it was over 100 µM; in assay [3], 5.24 µM; in [5] it was 5.71 µM; in [6], 6.12 µM; in [8] it was over 100 µM.
For `COc1cc2c(c(OC)c1OC)-c1ncc3cc(OC)c(OC)c(OC)c3c1C2`, the GI50 in assay [1] was 25.8 µM; in assay [2], 26.6 µM; in [3] it was 16.4 µM; in [4] it was 33.5 µM; in [5] it was 1.92 µM; in assay [6], 35.4 µM. In addition, the GI50 was 15.9 µM in assay [7] and 22.9 µM in assay [10]. In addition, the TGI in assay [1] was 50.3 µM; in assay [2] it was over 100 µM; in assay [3], 30.7 µM; in assay [4], over 100 µM; in [5], 46 µM; in assay [6] it was 66.5 µM. Besides, the TGI in assay [7] came out at 29.9 µM; in assay [10], 56.8 µM.
As to `CCN1CCC(CCOC)(CN2c3ccccc3Sc3ccc(Cl)cc32)C1` (centres undefined), the GI50 in assay [1] is 1.71 µM; in [2], 1.92 µM; in assay [3], 1.63 µM; in assay [4], 1.86 µM; in [6], 1.67 µM; in assay [8] it was 1.86 µM. Moreover, the GI50 in [9] is 2.2 µM; in assay [10], 2.54 µM. Further, the TGI in assay [1] is 3.29 µM; in assay [2] it was 3.68 µM; in assay [3], 3.2 µM; in assay [4], 3.32 µM; in assay [6] it was 3.13 µM; in assay [8], 3.54 µM. Moreover, the TGI amounted to 6.16 µM in assay [9] and 4.74 µM in [10].
As for `C/C(=N\Nc1ccc2ccccc2n1)c1ccccn1`, the GI50 was under 0.0195 µM in assay [1]; 0.107 µM in assay [2]; 0.133 µM in assay [3]; under 0.0472 µM in assay [4]; 0.09 µM in assay [6]; 0.0627 µM in [7]. For the same compound, the GI50 was 0.102 µM in assay [8], 0.156 µM in assay [9] and 0.263 µM in assay [10]. In addition, the TGI was determined as 2.7 µM in assay [1]; 5.25 µM in assay [2]; 2.51 µM in assay [3]; 3.03 µM in assay [4]; 11 µM in [6]; 1.42 µM in assay [7]. Besides, the TGI in [8] is 5.21 µM; in assay [9], 13.6 µM; in [10] it was 9.01 µM.
In the case of `N/C(=N\N=C\c1ccc(-c2ccccc2)cc1)N[N+](=O)[O-]`, the GI50 in [1] was 3.38 µM; in assay [2] it was 5.76 µM; in assay [4], 1.97 µM; in assay [5], 1.9 µM; in [6] it was 2.64 µM; in assay [7], 5.75 µM. Further, the GI50 in assay [8] was 1.47 µM; in [9], 9.2 µM; in assay [10], 4.82 µM. Besides, the TGI in [1] was over 42.1 µM; in [2], over 100 µM; in assay [4], over 100 µM; in assay [5], 7.58 µM; in assay [6] it was over 100 µM; in assay [7], over 100 µM. In addition, the TGI in assay [8], in assay [9] and in [10] was over 100 µM throughout.
For `CC(C)(C)c1n[nH]c(=S)n(/N=C/c2ccc(F)c(Oc3ccccc3)c2)c1=O`, the GI50 is 38.6 µM in assay [1]; 67.7 µM in assay [2]; 33.2 µM in assay [3]; over 100 µM in [4]; 61.9 µM in assay [5]; 90.1 µM in [6]. Besides, the GI50 in assay [7] is 28.7 µM; in [8] it was 40.5 µM; in assay [9], 37.7 µM. Also, the TGI in [1], in assay [2], in assay [3], in [4], in assay [5] and in assay [6] was over 100 µM each time. Also, the TGI in assay [7] is 72.2 µM; in assay [8], over 100 µM; in assay [9], over 100 µM.
As for `C=C1CC[C@@H]2[C@](C)(COC(C)=O)[C@@H](O)CC[C@@]2(C)[C@@H]1COc1ccc2ccc(=O)oc2c1`, the GI50 in assay [2], in assay [3], in assay [4], in assay [5], in assay [6] and in [7] was over 100 µM in each case. For the same compound, the GI50 in assay [8], in assay [9] and in [10] was over 100 µM throughout. The TGI in assay [2], in [3], in [4], in assay [5], in assay [6] and in assay [7] was over 100 µM each time. Further, the TGI in assay [8], in assay [9] and in assay [10] was over 100 µM each time.
In the case of `CCCCCCCCCCCCCCCCCC(=O)OCC(COC1OC(COP(=O)(O)O)C(O)C(O)C1O)OC(=O)CCCCCCCCCCCCCCCCC` (centres undefined), the TGI is 18.5 µM in assay [1]; 16.8 µM in [2]; 15.7 µM in [3]; 16.2 µM in assay [4]; 21.1 µM in [5]; 15.1 µM in assay [6]. In addition, the TGI in assay [7] is 17.2 µM; in assay [8] it was 17.1 µM; in assay [9], 15 µM.
For `COC(=O)C(Cc1ccccc1)NC(=O)NC(=O)NC(=O)CI` (centres undefined), the GI50 in [1] is 1.83 µM; in assay [2], 12.1 µM; in assay [3], 17.2 µM; in assay [4] it was 3.27 µM; in assay [6], 18 µM; in [7] it was 1.56 µM. For the same compound, the GI50 in assay [8] is 4.2 µM; in [9], 6.79 µM; in assay [10] it was 16.4 µM. The TGI in assay [1] was 3.56 µM; in assay [2] it was 25.3 µM; in assay [3] it was 33.3 µM; in [4], 11.1 µM; in assay [6], 33.7 µM; in assay [7] it was 3.23 µM. Moreover, the TGI in [8] was 28.5 µM; in assay [9], 28.2 µM; in [10], 30.7 µM.
On to `CCN=C1C=CC(=C(c2ccc(N)cc2)c2ccc(N(CC)CC)c(C)c2)C=C1`, for which the GI50 in [1] was 0.185 µM; in assay [2], 0.43 µM; in assay [3] it was 0.48 µM; in assay [4] it was 0.239 µM; in assay [5] it was 0.304 µM; in assay [6], 0.316 µM. In addition, the values for the GI50 in assay [9] and in assay [10] were 0.318 µM and 0.303 µM, respectively. Besides, the TGI was 0.4 µM in [1]; 2.28 µM in [2]; 1.65 µM in [3]; 1.11 µM in assay [4]; 0.841 µM in assay [5]; 1.73 µM in assay [6]. The TGI turned out to be 1.3 µM in [9] and 0.943 µM in assay [10].
